Tests used:
[1] = molecular target: nucleotide-binding domain (NBD) of human HSC70 (HSC70-NBD residues 1–381) (Homo sapiens, UniProt P11142); test: SPR affinity against immobilised HSC70-NBD; conditions: for fold increase in affinity compared to adenosine 1: comparator adenosine 1; for binding / affinity in words: SPR, HSC70-NBD, concentrations up to 1 mM; for fold improvement in affinity compared to 8-N-methylaminoadenosine 4: comparator 4 (Table 1, entry 2)
[2] = molecular target: HSP70; conditions: previously described affinity of ADP for HSP70; cited from earlier work

Chain of nucleotide-binding domain (NBD) of human HSC70 (HSC70-NBD residues 1–381) (P11142 1-381): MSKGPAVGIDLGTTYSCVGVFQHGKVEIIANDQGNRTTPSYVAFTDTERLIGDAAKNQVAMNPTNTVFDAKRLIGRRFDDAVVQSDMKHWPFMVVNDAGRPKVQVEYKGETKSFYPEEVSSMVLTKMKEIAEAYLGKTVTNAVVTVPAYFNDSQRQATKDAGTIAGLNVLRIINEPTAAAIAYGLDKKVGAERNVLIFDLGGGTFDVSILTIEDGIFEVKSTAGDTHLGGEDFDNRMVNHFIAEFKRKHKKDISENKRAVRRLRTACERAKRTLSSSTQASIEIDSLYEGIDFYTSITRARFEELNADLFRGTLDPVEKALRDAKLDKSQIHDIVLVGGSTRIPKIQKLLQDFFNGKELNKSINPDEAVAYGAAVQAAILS

Nc1ncnc2c1nc(N)n2[C@@H]1O[C@H](CO)[C@@H](O)[C@H]1O [Compound 3, 8-aminoadenosine, reference compound]
fold increase in affinity compared to adenosine 1 ([1]; SPR KD): 16 fold

CNc1nc2c(N)ncnc2n1[C@@H]1O[C@H](CO)[C@@H](O)[C@H]1O [Compound 4, (2R,3R,4S,5R)-2-(6-Amino-8-(methylamino)-9H-purin-9-yl)-5-(hydroxymethyl)tetrahydrofuran-3,4-diol]
fold drop in affinity compared to 8-aminoadenosine 3 ([1]; SPR KD, comparator 3): 2.5 fold

COc1nc2c(N)ncnc2n1[C@@H]1O[C@H](CO)[C@@H](O)[C@H]1O [Compound 6, (2R,3R,4S,5R)-2-(6-Amino-8-methoxy-9H-purin-9-yl)-5-(hydroxymethyl)tetrahydrofuran-3,4-diol]
binding / affinity in words [1]: complete loss of activity

CNc1nc2c(N)ncnc2n1[C@@H]1O[C@H](C)[C@@H](O)[C@H]1O [Compound 7, (2R,3R,4S,5R)-2-(6-Amino-8-(methylamino)-9H-purin-9-yl)-5-methyltetrahydrofuran-3,4-diol]
fold drop in affinity compared with 8-N-methylaminoadenosine 4 ([1]; SPR KD, comparator 4): 1.6 fold

Nc1ncnc2c1ccn2[C@@H]1O[C@H](CO)[C@@H](O)[C@H]1O [Compound 8, Tubercidin, reference compound]
fold increase in affinity compared to adenosine 1 ([1]; SPR KD): 4 fold

N#Cc1cn([C@@H]2O[C@H](CO)[C@@H](O)[C@H]2O)c2ncnc(N)c12 [Compound 9, Toyocamycin, reference compound]
binding / affinity in words [1]: comparable affinity to adenosine 1

NC(=O)c1cn([C@@H]2O[C@H](CO)[C@@H](O)[C@H]2O)c2ncnc(N)c12 [Compound 10, Sangivamycin, reference compound]
fold increase in affinity compared to adenosine 1 ([1]; SPR KD): 35 fold | half-life ([1]; SPR off-rate analysis): too short to be observed

CNc1c(C#N)c2c(N)ncnc2n1[C@@H]1O[C@H](CO)[C@@H](O)[C@H]1O [Compound 12, 4-Amino-7-((2R,3R,4S,5R)-3,4-dihydroxy-5-(hydroxymethyl)tetrahydrofuran-2-yl)-6-(methylamino)-7H-pyrrolo[2,3-d]pyrimidine-5-carbonitrile]
fold improvement in affinity compared to 8-N-methylaminoadenosine 4 ([1]; SPR KD): 5 fold | fold improvement in activity compared to toyocamycin 9 ([1]; SPR KD, comparator 9): 27 fold

CNc1c(C(N)=O)c2c(N)ncnc2n1[C@@H]1O[C@H](CO)[C@@H](O)[C@H]1O [Compound 13, 4-Amino-7-((2R,3R,4S,5R)-3,4-dihydroxy-5-(hydroxymethyl)tetrahydrofuran-2-yl)-6-(methylamino)-7H-pyrrolo[2,3-d]pyrimidine-5-carboxamide]
fold drop in affinity compared to sangivamycin 10 ([1]; SPR KD, comparator 10): 7 fold

N#Cc1c(NCc2ccccc2)n([C@@H]2O[C@H](CO)[C@@H](O)[C@H]2O)c2ncnc(N)c12 [Compound 14, 4-Amino-6-(benzylamino)-7-((2R,3R,4S,5R)-3,4-dihydroxy-5-(hydroxymethyl)tetrahydrofuran-2-yl)-7H-pyrrolo[2,3-d]pyrimidine-5-carbonitrile]
binding / affinity in words [1]: little change in affinity

Nc1ncnc2c1nc(NCc1ccccc1)n2[C@@H]1O[C@H](CO)[C@@H](O)[C@H]1O [Compound 15, (2R,3R,4S,5R)-2-(6-Amino-8-(benzylamino)-9H-purin-9-yl)-5-(hydroxymethyl)tetrahydrofuran-3,4-diol]
fold improvement in affinity compared to 8-N-methylaminoadenosine 4 ([1]; SPR KD): 12 fold

Nc1ncnc2c1ncn2[C@@H]1O[C@H](COP(=O)(O)OP(=O)(O)O)[C@@H](O)[C@H]1O [Compound 16, adenosine diphosphate]
Kd [2]: 0.5 µM

Nc1ncnc2c1nc(NCc1ccc(Cl)cc1)n2[C@@H]1O[C@H](CO)[C@@H](O)[C@H]1O [Compound 18, (2R,3R,4S,5R)-2-(6-Amino-8-((4-chlorobenzyl)amino)-9H-purin-9-yl)-5-(hydroxymethyl)tetrahydrofuran-3,4-diol]
fold improvement in affinity compared to 8-N-methylaminoadenosine 4 ([1]; SPR KD): 60 fold | fold improvement in affinity compared to compound 15 ([1]; SPR KD, comparator 15): 5 fold

Source: PMC5371393 (Journal of Medicinal Chemistry, 2016)
